Read-outs that look alike come from different tables or passages of the source.
Key:
Acetylcholine (ACh) = experiment: Microdialysis (ACh in striatal microdialysate); type: in vivo, male Sprague-Dawley Rats; settings: dose of 10 mg/kg PO; ACh in rat striatum microdialysate
Description: The skull was exposed and drilled through to the dura at a point 0.2 mm anterior and 3.0 mm lateral to the bregma. At these coordinates, a guide cannula was positioned at the outer edge of the dura through the drilled opening, lowered perpendicularly to a depth of 2.5 mm, and permanent!y secured with dental cement to bone screws. Following the surgery, rats were given ampicillin (40 mg/kg, ip) and individually housed in modified cages. A recovery period of approximately 3 to 7 days was allowed before the microdialysis procedure was undertaken. • Microdialysis: All of the equipment and instrumentation used to conduct in vivo microdialysis was obtained from Bioanalytical Systems, Inc. (BAS). The microdialysis procedure involved the insertion through the guide cannula of a thin, needle-like perfusable probe (CMA/12,3 mm x 0.5 mm) to a depth of 3 mm in striatum beyond the end of the guide. The probe was connected beforehand with tubing to a microinjection pump (CMA/ 100). Rats were collared, tethered, and, following probe insertion, were placed in a large, clear, plexiglass bowl with litter material and access to food and water. The probe was perfused at 2 µl/min with Ringer's buffer (NaCl 147 mM; KCl 3.0 mM; CaCl2 1.2 mM; MgCl2 1.0 mM) containing 5.5 mM glucose, 0.2 mM L-ascorbate, and 1 µM neostigmine bromide at pH 7.4). To achieve stable baseline readings, microdialysis was allowed to proceed for 90 minutes prior to the collection of fractions. Fractions (20 µl) were obtained at 10 minute intervals over a 3 hour period using a refrigerated collector (CMA/170 or 200). Four to five baseline fractions were collected, following which the drug or combination of drugs to be tested was administered to the animal. Upon completion of the collection, each rat was autopsied to determine accuracy of probe placement. • Acetylcholine (ACh) analysis: The concentration of ACh in collected samples of microdialysate was determined using HPLC/electrochemical detection. Samples were auto-injected (Waters 712 Refrigerated Sample Processor) onto a polymeric analytical HPLC column (BAS, MF-6150) and eluted with 50 mM Na2HPO4, pH 8.5. To prevent bacterial growth, Kathon CG reagent (0.005%) (BAS) was included in the mobile phase. Eluent from the analytical column, containing separated ACh and choline, was then immediately passed through an immobilized enzyme reactor cartridge (BAS, MF-6151) coupled to the column outlet. The reactor contained both acetylcholinesterase and choline oxidase covalently bound to a polymeric backbone. […] Data acquisition was carried out using an IBM Model 70 computer equipped with a microchannel IEEE board. Integration and quantification of peaks were accomplished using "Maxima" chromatography software (Waters Corporation). Total run time per sample was 11 minutes at a flow rate of 1 ml/min. Retention times for acetylcholine and choline were 6.5 and 7.8 minutes, respectively. To monitor and correct for possible changes in detector sensitivity during chromatography, ACh standards were included at the beginning, middle and end of each sample queue.
Increases in ACh levels are consistent with presynaptic m2 receptor antagonism.
Data for representative and/or preferred compounds of the present invention are as follows (compounds were administered at a dose of 10 mg/kg PO): […]

[1] = molecular target: human m1 muscarinic receptor (Homo sapiens, UniProt P11229); experiment: biochemical; type: binding
Chain of human m1 muscarinic receptor (P11229 whole entry): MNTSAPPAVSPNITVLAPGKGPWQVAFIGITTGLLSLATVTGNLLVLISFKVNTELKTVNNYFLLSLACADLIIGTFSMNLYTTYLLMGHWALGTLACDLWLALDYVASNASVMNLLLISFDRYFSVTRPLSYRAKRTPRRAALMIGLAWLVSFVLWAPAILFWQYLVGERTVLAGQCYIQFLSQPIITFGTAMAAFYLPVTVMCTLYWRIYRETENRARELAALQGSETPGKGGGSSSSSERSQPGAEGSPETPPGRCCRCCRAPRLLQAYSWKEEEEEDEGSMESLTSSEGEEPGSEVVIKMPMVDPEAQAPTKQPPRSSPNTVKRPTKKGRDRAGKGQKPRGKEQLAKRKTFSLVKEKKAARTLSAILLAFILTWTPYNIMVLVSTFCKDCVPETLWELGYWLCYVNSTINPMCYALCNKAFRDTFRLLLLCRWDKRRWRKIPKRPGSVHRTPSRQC

[2] = molecular target: human m4 muscarinic receptor (Homo sapiens, UniProt P08173); experiment: biochemical; type: binding
Chain of human m4 muscarinic receptor (P08173 whole entry): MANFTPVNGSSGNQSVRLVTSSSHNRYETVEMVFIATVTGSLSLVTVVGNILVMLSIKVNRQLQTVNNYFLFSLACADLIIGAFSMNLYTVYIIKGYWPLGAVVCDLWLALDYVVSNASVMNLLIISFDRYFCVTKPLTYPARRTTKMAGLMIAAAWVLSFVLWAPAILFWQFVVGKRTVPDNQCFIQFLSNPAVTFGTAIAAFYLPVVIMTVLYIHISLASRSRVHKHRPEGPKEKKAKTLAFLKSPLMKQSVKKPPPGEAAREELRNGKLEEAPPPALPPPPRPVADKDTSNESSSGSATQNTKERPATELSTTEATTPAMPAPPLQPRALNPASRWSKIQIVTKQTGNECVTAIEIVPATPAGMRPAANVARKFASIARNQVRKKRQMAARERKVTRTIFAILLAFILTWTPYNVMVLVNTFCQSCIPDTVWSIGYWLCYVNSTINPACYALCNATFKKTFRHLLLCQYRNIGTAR

[3] = molecular target: human m3 muscarinic receptor (Homo sapiens, UniProt P20309); settings: read-out: m3 Ki; membranes from stably transfected CHO cell lines, 3H-QNB
Chain of human m3 muscarinic receptor (P20309 whole entry): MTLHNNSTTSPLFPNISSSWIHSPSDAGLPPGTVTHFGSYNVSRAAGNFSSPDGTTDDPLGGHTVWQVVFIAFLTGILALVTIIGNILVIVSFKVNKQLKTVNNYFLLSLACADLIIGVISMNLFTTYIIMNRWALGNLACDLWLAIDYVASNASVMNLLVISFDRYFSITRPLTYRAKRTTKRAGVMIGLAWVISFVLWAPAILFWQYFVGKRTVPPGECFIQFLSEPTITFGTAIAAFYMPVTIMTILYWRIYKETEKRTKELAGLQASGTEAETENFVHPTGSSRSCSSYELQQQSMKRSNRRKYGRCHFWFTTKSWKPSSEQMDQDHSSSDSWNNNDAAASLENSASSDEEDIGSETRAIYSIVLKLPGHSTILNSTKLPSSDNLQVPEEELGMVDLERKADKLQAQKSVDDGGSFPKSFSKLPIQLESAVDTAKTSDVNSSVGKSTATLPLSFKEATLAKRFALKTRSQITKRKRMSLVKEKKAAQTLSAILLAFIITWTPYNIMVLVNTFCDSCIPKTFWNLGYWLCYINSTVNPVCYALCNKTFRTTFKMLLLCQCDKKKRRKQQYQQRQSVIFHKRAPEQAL

m5 = molecular target: T1, m5 (Homo sapiens, UniProt P08912); settings: read-out: m5 Ki
T1 sequence (P08912 1-532): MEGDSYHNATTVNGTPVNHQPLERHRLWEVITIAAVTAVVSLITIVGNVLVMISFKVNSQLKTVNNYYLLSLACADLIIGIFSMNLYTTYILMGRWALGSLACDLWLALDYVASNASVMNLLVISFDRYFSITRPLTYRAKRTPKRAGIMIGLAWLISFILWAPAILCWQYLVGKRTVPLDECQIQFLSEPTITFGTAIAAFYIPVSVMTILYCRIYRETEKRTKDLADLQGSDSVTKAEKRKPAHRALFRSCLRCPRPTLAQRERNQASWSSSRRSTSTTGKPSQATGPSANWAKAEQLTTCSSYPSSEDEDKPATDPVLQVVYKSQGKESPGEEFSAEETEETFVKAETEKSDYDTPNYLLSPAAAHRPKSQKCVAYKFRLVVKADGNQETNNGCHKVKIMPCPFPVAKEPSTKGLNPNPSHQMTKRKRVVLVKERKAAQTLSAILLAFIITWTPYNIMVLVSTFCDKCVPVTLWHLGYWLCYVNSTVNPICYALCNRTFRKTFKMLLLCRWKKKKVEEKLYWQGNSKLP

SMILES: COc1ccc(S(=O)(=O)c2ccc(C3(C4CCN(C5CCN(C(=O)c6cccc(F)c6N)CC5)CC4)OCCO3)cc2)cc1 [Example 2F]
- Microdialysis Maximum % of baseline (Acetylcholine (ACh)): 186 % of baseline

SMILES: COc1ccc(S(=O)(=O)c2ccc(C3(C4CCN(C5CCN(C(=O)c6cccc(C)c6N)CC5)CC4)OCCO3)cc2)cc1 [Example 2]
- Microdialysis Maximum % of baseline (Acetylcholine (ACh)): 194 % of baseline

SMILES: Nc1cc(F)ccc1C(=O)N1CCC(N2CCC(C3(c4ccc(S(=O)(=O)c5cccc(Cl)c5)cc4)OCCO3)CC2)CC1 [Example 3E]
- Microdialysis Maximum % of baseline (Acetylcholine (ACh)): 188 % of baseline

SMILES: Nc1ccccc1C(=O)N1CCC(N2CCC(Cc3ccc(S(=O)(=O)c4cccc(Cl)c4)cc3)CC2)CC1 [Example 7A]
- Ki [1]: 658 nM
- Ki [2]: 33.3 nM
- Microdialysis Maximum % of baseline (Acetylcholine (ACh)): 150 % of baseline

SMILES: Cc1cccc(C(=O)N2CCC(N3CCC(Cc4ccc(S(=O)(=O)c5cccc(Cl)c5)cc4)CC3)CC2)c1N [Example 7]
- Ki ([1]; membranes from stably transfected CHO cell lines, 3H-QNB, read-out: m1 Ki): 650 nM
- Ki [3]: 698 nM
- Ki (m5): 84.5 nM
- Ki ([2]; membranes from stably transfected CHO cell lines, 3H-QNB, read-out: m4 Ki): 61.4 nM
- Microdialysis Maximum % of baseline (Acetylcholine (ACh)): 180 % of baseline

Source: patent EP1214299B1, “MUSCARINIC ANTAGONISTS” (SCHERING CORPORATION, priority 1999, dated 2001)
